How the values were obtained:
Type in all cases: in vivo
[1] = test system: cucumber target leaf spot fungus (Corynespora cassiicola); assay: Test Example 10: cucumber target leaf spot control, foliar spray; conditions: 200 ppm spray on cucumber (SAGAMI HANJIRO)
[2] = test system: wheat rust fungus (Puccinia recondita); assay: Test Example 2: wheat rust control, foliar spray; conditions: 500 ppm spray on wheat (SHIROGANE)
[3] = test system: cucumber anthracnose fungus (Colletotrichum lagenarium); assay: Test Example 9 and Comparative Test Example: cucumber anthracnose control, foliar spray; conditions: 200 ppm spray on cucumber (SAGAMI HANJIRO); inoculated one day after spraying

For CNC(=O)Oc1cccc(C)c1COc1ccc(-c2nn(C)c(Cl)c2C)cc1C [present compound 7], the “area of lesion on the treated plant relative to that on an untreated plant” value [1] was ≤ 30%.
For CNC(=O)Oc1c(C)cccc1COc1ccc(-c2nn(C)c(Cl)c2C)cc1C [present compound 6], the “area of lesion on the treated plant relative to that on an untreated plant” value [2] was ≤ 30%.
COC(=O)Oc1ccccc1COc1ccc(C)cc1C [2-[(2,4-dimethylphenoxy)methyl]phenyl=methyl=carbonate] was tested, and the “area of lesion on the treated plant relative to that on an untreated plant” value [3] was ≥ 70%.

Source: patent publication US9573904B2, “Aromatic compound and use thereof” (Sumitomo Chemical Company, Limited, priority 2013, dated 2017)
